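Step 1: Grow cells in 96-well plates. Step 2: Expose to compound for 48 hours at 5 concentrations. Step 3: Interpolate endpoints linearly; if unreached, use highest concentration. GI50 marks 50% less growth.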 Activity calls are given as the source filed them. Rule as the data show it: active = GI50 up to about 1.1 µM and inactive = higher. A value given as a limit tells only on which side of the number the result lay.

Among the test systems are UACC-257; HCT-116; NCI-H460; SW-620; NCI-H23; CAKI-1; NCI/ADR-RES; NCI-H522; UO-31; TK-10; K562; ACHN; M14; OVCAR-8; HL-60; OVCAR-4; SNB-19; A549; SK-MEL-28; HCT-15.
Common to all, as to assay: NCI-60 cell line screen, 48 h

As for `COC(=O)C1C(C(=O)OC)N(Cc2ccccc2)C(=O)N1Cc1ccccc1` (stereo not given), the GI50 is 76 µM (inactive) with UACC-257; > 100 µM (inactive) with HCT-116; 69.5 µM (inactive) in the test with NCI-H460; > 100 µM (inactive) in the test on SW-620; 75.5 µM (inactive) in the test on NCI-H23; 99.5 µM (inactive) with CAKI-1. The GI50 in the test with NCI/ADR-RES is > 100 µM (inactive); with NCI-H522, 37.5 µM (inactive); in the test with UO-31, 87.7 µM (inactive); with TK-10, > 100 µM (inactive); in the test with K562, 45.6 µM (inactive); in the test with ACHN, > 100 µM (inactive). Besides, the GI50 is > 100 µM (inactive) with M14; > 100 µM (inactive) in the test on OVCAR-8; 13.3 µM (inactive) with HL-60; > 100 µM (inactive) in the test with OVCAR-4; > 100 µM (inactive) in the test on SNB-19; > 100 µM (inactive) with A549. In the test on SK-MEL-28, the GI50 was > 100 µM (inactive).
As to `CCC(C(=O)c1ccc(OC)c(OC)c1)N(C(=O)C(F)(F)F)C(C)c1ccccc1` (stereo not given), the GI50 in the test on UACC-257, in the test on HCT-116, in the test on NCI-H460, with SW-620, in the test on CAKI-1 and in the test with NCI/ADR-RES was > 100 µM (inactive) throughout. For the same compound, the GI50 in the test on NCI-H522, in the test on UO-31, with TK-10, with K562, in the test on ACHN and in the test on M14 was > 100 µM (inactive) in each case. The GI50 is > 100 µM (inactive) in the test on OVCAR-8; more than 100 µM in the test on HCT-15; > 100 µM (inactive) with HL-60; > 100 µM (inactive) with SNB-19; > 100 µM (inactive) with A549; > 100 µM (inactive) in the test on SK-MEL-28.
Turning to `NNc1nnc(-c2ccccc2)nc1Cc1ccccc1`, the GI50 in the test on HCT-116 was 7.18 µM (inactive); in the test with NCI-H460 it was 4.17 µM (inactive); in the test with SW-620, 5.13 µM (inactive); in the test with NCI-H23, 6.03 µM (inactive); with CAKI-1 it was 13.8 µM (inactive); in the test with NCI-H522, 5.4 µM (inactive). The GI50 is 3.81 µM (inactive) in the test on UO-31; 9.35 µM (inactive) in the test on TK-10; 5.65 µM (inactive) in the test on K562; 4.04 µM (inactive) with ACHN; 8.57 µM (inactive) in the test with M14; 4.52 µM (inactive) in the test with OVCAR-8. Besides, the GI50 in the test on HCT-15 was 4.13 µM; with HL-60 it was 4.32 µM (inactive); in the test on OVCAR-4 it was 9.14 µM (inactive); in the test with SNB-19, 6.62 µM (inactive); in the test on A549, 6.41 µM (inactive); with SK-MEL-28, 7.71 µM (inactive).
Turning to `NC(CCCCCP(=O)(O)O)C(=O)O` (stereo not given) [AP-7], the GI50 in the test on UACC-257, in the test on HCT-116, with NCI-H460, with SW-620, with NCI-H23 and in the test on CAKI-1 was > 100 µM (inactive) in each case. Further, the GI50 in the test on NCI/ADR-RES, in the test on NCI-H522, in the test with UO-31, in the test with TK-10, in the test with K562 and in the test on ACHN was > 100 µM (inactive) each time. Further, the GI50 is > 100 µM (inactive) in the test with M14; > 100 µM (inactive) with OVCAR-8; more than 100 µM in the test with HCT-15; > 100 µM (inactive) with HL-60; > 100 µM (inactive) in the test with OVCAR-4; > 100 µM (inactive) with SNB-19. Further, the GI50 in the test with A549 and in the test with SK-MEL-28 was > 100 µM (inactive) in each case.
